Data from patent US6126966A (Sequus Pharmaceuticals, Inc., priority 1999, dated 2000).

Legend:
[1] = preclinical studies; Weiss, et al., 1993; cited from earlier work
[2] = system: tumor models in laboratory animals and human tumors; conditions: Sur 1983; Steerenberg 1987; cited from earlier work
C26 colon tumor = C26 colon tumor model, altered dosing schedule (FIG. 6); assay type: in vivo, mice (Balb/c, male); conditions: IV, days 12, 19, 26, free cisplatin 6 mg/kg, liposomal 6, 12/4/4 or 14/4/4 mg/kg
Method: That is, liposome-entrapped cisplatin was administered with a larger loading dose followed by smaller doses at the second and third weeks.
The C26 colon tumor model was grown in Balb/c, male mice (Simonson Laboratories, Inc., Gilroy, Calif.). Tumors were harvested from donor mice for and minced finely in RPMI media with 10% fetal calf serum (FCS). Tumors were then digested with enzyme mix (10 ml 0.25% protease type IX and 0.25% collagenase type IV in Hank's balanced salt solution (HBSS) and 0.2% ml 0.02% DNase in HBSS) for 30-60 minutes at 37° C. Single cell suspension of tumor cells was washed twice in RPMI media with FCS, concentrated by centrifugation and resuspended in RPMI media with FCS for inoculation. One million tumor cells (0.1 ml) were inoculated in the left flank of 5-6 week old mice.
2. Altered Dosing Schedule. Mice were inoculated with the C26 colon tumor cells according to the above-described procedure. Treatment of the tumor-bearing mice was initiated when the majority of animals had palpable tumors mass of about 100 mm^3.
Cisplatin entrapped in liposomes, prepared as described above, was administered intravenously according to three dosing schedules to tumor-bearing mice. […] The control group (n=5) received saline on each treatment day.

[3] = Freise, et al., 1982; cited from earlier work
[4] = system: squamous cell cancer of the head and neck; conditions: 80 mg/m^2, 24-hour intravenous infusion; Prestayko, 1991; cited from earlier work
Lewis lung carcinoma = test: Lewis lung tumor model (FIG. 7); assay type: in vivo, mice (B6C3-F1, male); conditions: days 7, 14, 21, free cisplatin 6 mg/kg, liposomal 12 mg/kg
Method: Mice bearing the Lewis lung carcinoma tumor model were treated with cisplatin, administered intravenously and intraperitoneally, or with liposome-entrapped cisplatin, administered similarly. […] A control group of tumor-bearing mice were treated with saline.
The Lewis lung tumor (LL/2, CRL-1642, ATCC, Rockville, Md.) model was grown in G6C3-F1, male mice (Simonson Laboratories, Inc., Gilroy, Calif.). Tumors were harvested from donor mice and processed as above for inoculation of an experiment. One million tumor cells (0.1 ml) were inoculated in the left flank of 5-6 week old, male, B6C3-F1 mice.
Treatment of the tumor-bearing animals was initiated seven days after inoculation, when the majority of animals had palpable tumor masses.
The control group (n=9) received saline on the treatment days (days 7, 14 and 21).

[5] = IV, once per week for 3 weeks, mice; cited from earlier work

SMILES | antitumor activity relative to cisplatin [1] | nephrotoxicity relative to cisplatin [1] | antitumor effectiveness [2] | tumor mass (C26 colon tumor) | excretion via the kidneys [3] | clinical response [4] | antitumor response, IV vs IP administration (Lewis lung carcinoma) | maximally tolerated dose [5] [mg/kg]
N.N.O=C([O-])C1(C(=O)[O-])CCC1.[Pt+2] [carboplatin, 1,1-cyclobutane-dicarboxylate-diammineplatinum] | equivalent or greater antitumor activity than cisplatin | less nephrotoxicity |  |  |  |  |  | 
N.N.[Cl][Pt][Cl] [cisplatin, cis-diamine-dichloroplatinum (II)] |  |  | highly effective in the treatment of tumor models in laboratory animals and in human tumors | continual increase in tumor mass | rapid excretion via the kidneys | favorable response | similar | 6
